The target in data set [1] is NaV1.6 (Homo sapiens (Human), UniProt Q9UQD0). As to the kind of experiment: Sodium Influx Assay (Flux), NaV1.6. To be noted: read-out: Flux NaV1.6 IC50; Trex HEK293 cells, ANG2 dye; arithmetic mean.
Data set [2] concerns the target NaV1.1 (Homo sapiens (Human), UniProt P35498). The data set is described as follows: Sodium Influx Assay (Flux), NaV1.1. It is filed as cell-based. Particulars: Trex HEK293 cells, ANG2 dye; arithmetic mean.
Data set [3] addresses NaV1.5 (Homo sapiens (Human), UniProt Q14524). As to the kind of experiment: Sodium Influx Assay (Flux), NaV1.5. Particulars: read-out: Flux NaV1.5 IC50; Trex HEK293 cells, ANG2 dye; arithmetic mean.

Structures can show the parent of a compound that is named as a salt.

The results in this text go back to patent publication US10246453B2, “Benzenesulfonamide compounds and their use as therapeutic agents” (Xenon Pharmaceuticals Inc., priority 2016, dated 2019).

Usually IC50 stands for the point on the concentration scale where inhibition reaches its midpoint.

Sequence of NaV1.5 (Q14524 other isoform, or with tags, fused parts or gaps): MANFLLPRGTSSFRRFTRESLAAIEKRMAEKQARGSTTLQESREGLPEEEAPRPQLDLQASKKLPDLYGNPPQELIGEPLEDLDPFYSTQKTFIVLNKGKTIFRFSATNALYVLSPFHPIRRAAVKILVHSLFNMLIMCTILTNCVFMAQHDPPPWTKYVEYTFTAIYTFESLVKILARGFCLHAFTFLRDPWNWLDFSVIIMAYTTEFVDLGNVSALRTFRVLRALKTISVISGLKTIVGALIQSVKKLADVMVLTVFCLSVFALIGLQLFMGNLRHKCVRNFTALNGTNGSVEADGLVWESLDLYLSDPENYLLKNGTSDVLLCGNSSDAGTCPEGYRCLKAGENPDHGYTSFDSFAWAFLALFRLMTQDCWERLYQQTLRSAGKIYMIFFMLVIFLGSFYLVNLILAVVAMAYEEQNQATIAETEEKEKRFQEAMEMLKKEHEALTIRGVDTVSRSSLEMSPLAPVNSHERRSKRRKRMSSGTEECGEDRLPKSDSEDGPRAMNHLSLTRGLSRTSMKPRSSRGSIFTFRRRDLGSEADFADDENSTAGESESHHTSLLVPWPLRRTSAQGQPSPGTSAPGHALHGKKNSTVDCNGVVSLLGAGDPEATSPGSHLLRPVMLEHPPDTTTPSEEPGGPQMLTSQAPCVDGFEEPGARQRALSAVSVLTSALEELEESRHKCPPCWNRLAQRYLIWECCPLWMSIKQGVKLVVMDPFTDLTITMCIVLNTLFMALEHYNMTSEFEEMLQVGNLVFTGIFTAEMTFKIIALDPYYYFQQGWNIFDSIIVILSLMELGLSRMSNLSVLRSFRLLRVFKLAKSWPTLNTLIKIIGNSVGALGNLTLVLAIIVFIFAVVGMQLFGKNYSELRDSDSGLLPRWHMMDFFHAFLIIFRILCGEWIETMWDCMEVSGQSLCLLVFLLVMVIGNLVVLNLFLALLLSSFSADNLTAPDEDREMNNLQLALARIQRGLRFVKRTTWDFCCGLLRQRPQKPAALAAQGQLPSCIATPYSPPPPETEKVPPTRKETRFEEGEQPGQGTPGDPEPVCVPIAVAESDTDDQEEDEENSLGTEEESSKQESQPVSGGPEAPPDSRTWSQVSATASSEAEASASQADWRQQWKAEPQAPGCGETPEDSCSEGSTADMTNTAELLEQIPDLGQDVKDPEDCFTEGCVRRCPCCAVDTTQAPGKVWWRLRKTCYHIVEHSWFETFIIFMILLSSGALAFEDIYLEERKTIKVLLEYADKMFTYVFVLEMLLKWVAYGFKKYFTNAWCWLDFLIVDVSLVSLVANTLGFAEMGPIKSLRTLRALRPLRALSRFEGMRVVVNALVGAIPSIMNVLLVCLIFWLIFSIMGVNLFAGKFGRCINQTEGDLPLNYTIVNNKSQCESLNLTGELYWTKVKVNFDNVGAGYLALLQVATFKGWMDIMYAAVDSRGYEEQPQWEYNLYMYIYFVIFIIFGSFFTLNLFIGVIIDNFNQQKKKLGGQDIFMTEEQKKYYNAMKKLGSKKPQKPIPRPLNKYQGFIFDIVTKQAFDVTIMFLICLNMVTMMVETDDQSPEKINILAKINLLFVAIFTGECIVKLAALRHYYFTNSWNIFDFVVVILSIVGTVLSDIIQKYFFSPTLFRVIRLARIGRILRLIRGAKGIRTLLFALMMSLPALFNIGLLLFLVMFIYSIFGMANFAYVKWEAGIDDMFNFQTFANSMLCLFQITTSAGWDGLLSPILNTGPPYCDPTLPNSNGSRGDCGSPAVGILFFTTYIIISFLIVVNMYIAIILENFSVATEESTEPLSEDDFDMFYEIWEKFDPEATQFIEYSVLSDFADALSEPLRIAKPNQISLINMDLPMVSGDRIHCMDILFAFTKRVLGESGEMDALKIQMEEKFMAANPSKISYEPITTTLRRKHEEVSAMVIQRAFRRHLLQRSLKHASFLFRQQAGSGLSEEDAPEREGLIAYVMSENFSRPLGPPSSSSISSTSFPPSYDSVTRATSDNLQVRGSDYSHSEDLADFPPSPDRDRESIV

As for `Cc1ccc(F)c(CN2CC[C@H](N(C)c3cc(F)c(S(=O)(=O)Nc4cscn4)cc3Cl)C2)c1` [Example 172, (S)-5-chloro-2-fluoro-4-((1-(2-fluoro-5-methylbenzyl)-pyrrolidin-3-yl)(methyl)amino)-N-(thiazol-4-yl)benzene-sulfonamide 2,2,2-trifluoroacetate], the 50% inhibitory concentration (IC50) in data set [1] came to 0.432 µM; in data set [2], 5.45 µM; in data set [3], 4.97 µM.
For `Cc1c(N(C)[C@H]2CCN(Cc3cccc(F)c3)C2)cc(F)c(S(=O)(=O)Nc2cscn2)c1F` [Example 235, (S)-2,6-difluoro-4-((1-(3-fluorobenzyl)pyrrolidin-3-yl)(methyl)amino)-3-methyl-N-(thiazol-4-yl)benzenesulfonamide formate], the IC50 in data set [1] is 0.047 µM; in data set [2], 10.2 µM; in data set [3], 15.4 µM.
On to `COc1ccccc1CN1CC[C@H](N(C)c2cc(F)c(S(=O)(=O)Nc3cscn3)cc2C)C1` [Example 119, (S)-2-fluoro-4-((1-(2-methoxybenzyl)-pyrrolidin-3-yl)(methyl)amino)-5-methyl-N-(thiazol-4-yl)benzenesulfonamide formate], for which the IC50 in data set [1] is 0.368 µM; in data set [2] it was 28.8 µM; in data set [3] it was 20.2 µM.
Turning to `Cc1ccc(F)c(CN2CC[C@H](N(C)c3cc(F)c(S(=O)(=O)Nc4cscn4)cc3Cl)C2)n1` [Example 314, (S)-5-chloro-2-fluoro-4-((1-((3-fluoro-6-methylpyridin-2-yl)methyl)pyrrolidin-3-yl)(methyl)amino)-N-(thiazol-4-yl)benzenesulfonamide], the IC50 in data set [1] was 0.73 µM; in data set [2], above 30 µM; in data set [3], above 30 µM.
For the compound `Cc1cc(S(=O)(=O)Nc2cscn2)c(F)cc1N(C)[C@H]1CCN(CCC(C)(C)C)C1` [Example 125, (S)-4-((1-(3,3-dimethylbutyl)-pyrrolidin-3-yl)(methyl)amino)-2-fluoro-5-methyl-N-(thiazol-4-yl)benzenesulfonamide formate], the IC50 in data set [1] is 2.32 µM; in data set [2], 14.7 µM; in data set [3], above 30 µM.
For `Cc1cc(S(=O)(=O)Nc2cscn2)c(F)cc1N(C)[C@H]1CCN(Cc2csc(C3CC3)n2)C1` [Example 138, (S)-4-((1-((2-cyclopropylthiazol-4-yl)methyl)pyrrolidin-3-yl)(methyl)amino)-2-fluoro-5-methyl-N-(thiazol-4-yl)benzenesulfonamide], the values for the IC50 in data set [1], in data set [2] and in data set [3] were 0.05 µM, 9.48 µM and 10.4 µM, respectively.
In the same order, the values of `Cc1cc(S(=O)(=O)Nc2cscn2)c(F)cc1N(C)[C@H]1CCN(Cc2nc3ccccc3s2)C1` [Example 144, (S)-4-((1-(benzo[d]thiazol-2-ylmethyl)pyrrolidin-3-yl)(methyl)amino)-2-fluoro-5-methyl-N-(thiazol-4-yl)benzenesulfonamide] are 4.8 µM, 6.72 µM and 8.47 µM.
Take `Cc1cc(S(=O)(=O)Nc2cscn2)c(F)cc1N(C)[C@H]1CCN(Cc2cc(C)n(C)n2)C1` [Example 141, (S)-4-((1-((1,5-dimethyl-1H-pyrazol-3-yl)methyl)pyrrolidin-3-yl)(methyl)amino)-2-fluoro-5-methyl-N-(thiazol-4-yl)benzenesulfonamide]: the figures for the IC50 in data set [1], in data set [2] and in data set [3] were 0.582 µM, above 30 µM and above 30 µM, respectively.
For the compound `Cc1coc(CN2CC[C@H](N(C)c3cc(F)c(S(=O)(=O)Nc4cscn4)cc3C)C2)n1` [Example 139, (S)-2-fluoro-5-methyl-4-(methyl(1-((4-methyloxazol-2-yl)methyl)pyrrolidin-3-yl)amino)-N-(thiazol-4-yl)benzenesulfonamide], the values for the IC50 in data set [1], in data set [2] and in data set [3] were 7.73 µM, above 30 µM and above 30 µM, respectively.
Consider `CN(c1cc(F)c(S(=O)(=O)Nc2cscn2)cc1Cl)[C@H]1CCN(Cc2ccc[nH]2)C1` [Example 202, (S)-4-((1-((1H-pyrrol-2-yl)methyl)pyrrolidin-3-yl)(methyl)amino)-5-chloro-2-fluoro-N-(thiazol-4-yl)benzenesulfonamide], for which the IC50 in data set [1] was 4.32 µM; in data set [2] it was 25.1 µM; in data set [3], above 30 µM.
Take `Cc1nc(CN2CC[C@H](N(C)c3cc(F)c(S(=O)(=O)Nc4cscn4)cc3C)C2)co1` [Example 131, (S)-2-fluoro-5-methyl-4-(methyl(1-((2-methyloxazol-4-yl)methyl)pyrrolidin-3-yl)amino)-N-(thiazol-4-yl)benzenesulfonamide]: the IC50 is 2.86 µM in data set [1], above 30 µM in data set [2] and above 30 µM in data set [3].
As for `O=S(=O)(Nc1nccs1)c1ccc(NC2CN(Cc3ccccc3)C2)c(Cl)c1` [Example 50, 4-((1-benzylazetidin-3-yl)amino)-3-chloro-N-(thiazol-2-yl)benzenesulfonamide 2,2,2-trifluoroacetate], the IC50 in data set [1] was determined as 1.08 µM; in data set [2], 4.15 µM; in data set [3], 5.71 µM.
Turning to `O=S(=O)(Nc1nccs1)c1ccc(OC2CCN(Cc3ccncc3)CC2)c(Cl)c1` [Example 63, 3-chloro-4-((1-(pyridin-4-ylmethyl)piperidin-4-yl)oxy)-N-(thiazol-2-yl)benzenesulfonamide], the IC50 was 27.7 µM in data set [1], above 30 µM in data set [2] and above 30 µM in data set [3].
For `CN(c1cc(F)c(S(=O)(=O)Nc2cscn2)cc1Cl)[C@H]1CCN(Cc2c[nH]c3ccccc23)C1` [Example 182, (S)-4-((1-((1H-indol-3-yl)methyl)pyrrolidin-3-yl)(methyl)amino)-5-chloro-2-fluoro-N-(thiazol-4-yl)benzene-sulfonamide 2,2,2-trifluoroacetate], the values for the IC50 in data set [1], in data set [2] and in data set [3] were 0.877 µM, 9.41 µM and 9.86 µM, respectively.
In the case of `CN(c1cc(F)c(S(=O)(=O)Nc2cscn2)cc1Cl)[C@H]1CCN(Cc2ccccc2F)C1` [Example 218, (S)-5-chloro-2-fluoro-4-((1-(2-fluorobenzyl)pyrrolidin-3-yl)(methyl)amino)-N-(thiazol-4-yl)benzenesulfonamide], the IC50 came to 2 µM in data set [1], 13.7 µM in data set [2] and 14.2 µM in data set [3].
On to `CN(c1cc(F)c(S(=O)(=O)Nc2cscn2)cc1Cl)[C@H]1CCN(Cc2ccccc2Cl)C1` [Example 198, (S)-5-chloro-4-((1-(2-chlorobenzyl)pyrrolidin-3-yl)(methyl)amino)-2-fluoro-N-(thiazol-4-yl)benzenesulfonamide], for which the results for the IC50 in data set [1], in data set [2] and in data set [3] were 1.46 µM, 5.36 µM and 4.7 µM, respectively.
On to `CN(c1ccc(S(=O)(=O)Nc2cscn2)cc1C(F)(F)F)[C@H]1CCN(Cc2ccccc2)C1` [Example 294, (S)-4-((1-benzylpyrrolidin-3-yl)(methyl)amino)-N-(thiazol-4-yl)-3-(trifluoromethyl)benzenesulfonamide formate], for which the IC50 in data set [1] turned out to be 2.35 µM; in data set [2], 15.7 µM; in data set [3], 16.4 µM.
The like results for `CC1(Oc2ccc(S(=O)(=O)Nc3nccs3)cc2Cl)CCN(Cc2ccccc2)CC1` [Example 19, 4-((1-benzyl-4-methylpiperidin-4-yl)oxy)-3-chloro-N-(thiazol-2-yl)benzenesulfonamide] were, in that order, 3.17 µM, 4.96 µM and 4.68 µM.
Take `CN(c1cc(F)c(S(=O)(=O)Nc2cscn2)cc1Cl)[C@H]1CCN(Cc2cccc3ccncc23)C1` [Example 186, (S)-5-chloro-2-fluoro-4-((1-(isoquinolin-8-ylmethyl)pyrrolidin-3-yl)(methyl)amino)-N-(thiazol-4-yl)benzene-sulfonamide 2,2,2-trifluoroacetate]: the IC50 turned out to be 3.27 µM in data set [1], 19.2 µM in data set [2] and 20.1 µM in data set [3].
As for `Cc1cc(S(=O)(=O)Nc2cscn2)ccc1N(C)[C@H]1CCN(Cc2cc(F)ccc2F)C1` [Example 285, (S)-4-((1-(2,5-difluorobenzyl)pyrrolidin-3-yl)(methyl)amino)-3-methyl-N-(thiazol-4-yl)benzenesulfonamide 2,2,2-trifluoroacetate], the results for the IC50 in data set [1], in data set [2] and in data set [3] were 0.389 µM, 4.37 µM and 2.71 µM, respectively.
In the same order, the values of `O=S(=O)(Nc1cscn1)c1c(F)cc(O[C@H]2CCN(Cc3ccccc3)C2)c(Cl)c1F` [Example 268, (S)-4-((1-benzylpyrrolidin-3-yl)oxy)-3-chloro-2,6-difluoro-N-(thiazol-4-yl)benzenesulfonamide hydrochloride] are 4.92 µM, above 30 µM and 28.2 µM.
Turning to `O=S(=O)(Nc1nccs1)c1ccc(OC2CN(Cc3ccccc3)C2)c(Cl)c1` [Example 76, 4-((1-benzylazetidin-3-yl)oxy)-3-chloro-N-(thiazol-2-yl)benzenesulfonamide], the IC50 in data set [1] turned out to be 4.7 µM; in data set [2] it was 11.4 µM; in data set [3] it was 16.8 µM.
With `Cc1cc(S(=O)(=O)Nc2cscn2)c(F)cc1N(C)[C@H]1CCN(Cc2cc3ccccn3n2)C1` [Example 122, (S)-2-fluoro-5-methyl-4-(methyl(1-(pyrazolo[1,5-a]pyridin-2-ylmethyl)pyrrolidin-3-yl)amino)-N-(thiazol-4-yl)benzenesulfonamide], the IC50 amounted to 1.72 µM in data set [1], 26.9 µM in data set [2] and 24.2 µM in data set [3].
Consider `CN(c1cc(F)c(S(=O)(=O)Nc2cscn2)cc1Cl)[C@H]1CCN(Cc2cccc(F)c2F)C1` [Example 213, (S)-5-chloro-4-((1-(2,3-difluorobenzyl)pyrrolidin-3-yl)(methyl)amino)-2-fluoro-N-(thiazol-4-yl)benzenesulfonamide], for which the IC50 turned out to be 3.46 µM in data set [1], 16.1 µM in data set [2] and 12.8 µM in data set [3].
